The target in one experiment is T1, TRPA1 (Homo sapiens, UniProt O75762).
T1 construct: host or cells: HEK TRex293
Description: Bulk calcium assay (Fluo-4) in HEK cells overexpressing TRPA1. It counts as cell-based. Here is the method:
(§1) HEK TRexTRPV1 were cultured in DMEM, 10% Fetal Bovine Serum, 2 mM Lglutamine, 10 μg/ml Blasticidin (Calbiochem, San Diego Calif.), 400 μg/ml Zeocin (InvivoGen, San Diego Calif.), where indicated transgene expression was induced using 1 μg/ml Tetracycline for 16-24 hrs. Unless otherwise indicated, basal expression of TRPV1 without induction was sufficient for these studies, and comparisons were made to untransfected HEK where needed. HEKTRex293 over-expressing human TRPV2, human TRPA1 and human TRPM8 were obtained from SB Drug Discovery (Glasgow, Scotland) and cultured as described above. The cannabinoids and terpenes were assayed in HEK cells that have been transfected with the TRPV1 ion channel protein. These cells are called HEK293-V1 cells.
(§2) Cells were washed and incubated with 0.2 micromolar Fluo-4 for 30 minutes at 37° C. in a standard modified Ringer's solution of the following composition (in mM): NaCl 145, KCl 2.8, CsCl 10, CaCl2 10, MgCl2 2, glucose 10, Hepes·NaOH 10, pH 7.4, 330 mOsm. Cells were transferred to 96-well plates at 50,000 cells/well and stimulated as indicated. Calcium signals were acquired using a Flexstation 3 (Molecular Devices, Sunnydale, USA). Data was analyzed using SoftMax® Pro 5 (Molecular Devices). Where indicated, nomically calcium-free external conditions were achieved by the preparation of 0 mM CaCl2 Ringer solution containing 1 mM EGTA.
(§3) Calcium responses mediated by TRPA1, TRPM8, TRPV2, and TRPV1 were tested by calcium assay in the cell culture system. Cells were washed and incubated with 0.2 μM fluo-4 acetoxymethyl ester (“Fluo-4”) for 30 minutes at 37° C. in a standard modified Ringer's solution of the following composition (in mM): NaCl 145, KCl 2.8, CsCl 10, CaCl2 10, MgCl2 2, glucose 10, Hepes·NaOH 10, pH 7.4, 330 mOsm. Cells were transferred to 96-well plates at 50,000 cells/well and stimulated with 10 μM myrcene diluted in DMSO. Vehicle (DMSO) was used as a negative control. Vehicle traces were subtracted from the myrcene traces for each cell line.
(§4) The potential for different cannabinoids to target specific TRP channels, or to co-target more than one channel type, are of potential therapeutic options for the treatment and management of pain. Comparison of the impacts of a variety of cannabinoid on overexpression systems for TRPV2, TRPM8, and TRPA1 were performed in a side-by-side fashion, under bulk calcium assays where the measurements with each trace representing averaged triplicates of 100,000 cells per sample. As shown in FIGS. 41-43 and summarized in Table 3, there are clear differences in responsiveness between cannabinoids at a single channel type than between channel types to a given cannabinoid.

The target of the next experiment is T2, TRPV2 (Homo sapiens, UniProt Q9Y5S1).
T2 construct: host or cells: HEK TRex293
T2 sequence (Q9Y5S1 1-764): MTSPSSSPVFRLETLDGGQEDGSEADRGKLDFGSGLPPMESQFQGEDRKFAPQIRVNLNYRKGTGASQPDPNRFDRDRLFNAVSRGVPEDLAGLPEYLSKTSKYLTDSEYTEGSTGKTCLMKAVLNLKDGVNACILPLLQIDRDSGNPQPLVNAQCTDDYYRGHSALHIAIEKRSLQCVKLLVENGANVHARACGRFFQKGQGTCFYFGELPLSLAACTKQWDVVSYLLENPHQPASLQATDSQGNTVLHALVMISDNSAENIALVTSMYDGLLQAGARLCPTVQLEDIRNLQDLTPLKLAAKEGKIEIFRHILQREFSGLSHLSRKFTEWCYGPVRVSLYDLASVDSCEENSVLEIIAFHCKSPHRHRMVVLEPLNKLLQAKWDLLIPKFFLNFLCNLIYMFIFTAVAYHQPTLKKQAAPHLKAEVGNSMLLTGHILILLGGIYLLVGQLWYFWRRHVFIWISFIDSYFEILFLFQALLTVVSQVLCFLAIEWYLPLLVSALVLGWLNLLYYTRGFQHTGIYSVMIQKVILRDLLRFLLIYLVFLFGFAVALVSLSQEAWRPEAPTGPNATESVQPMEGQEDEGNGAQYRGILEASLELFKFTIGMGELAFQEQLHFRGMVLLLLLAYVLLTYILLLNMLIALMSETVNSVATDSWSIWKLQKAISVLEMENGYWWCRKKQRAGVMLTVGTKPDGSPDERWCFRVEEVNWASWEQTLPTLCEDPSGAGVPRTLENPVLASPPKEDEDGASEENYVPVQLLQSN
Description: Bulk calcium assay (Fluo-4) in HEK cells overexpressing TRPV2. In kind it is cell-based. Here is the method:
as §1, §2, §3, §4

T1 sequence (O75762 whole entry): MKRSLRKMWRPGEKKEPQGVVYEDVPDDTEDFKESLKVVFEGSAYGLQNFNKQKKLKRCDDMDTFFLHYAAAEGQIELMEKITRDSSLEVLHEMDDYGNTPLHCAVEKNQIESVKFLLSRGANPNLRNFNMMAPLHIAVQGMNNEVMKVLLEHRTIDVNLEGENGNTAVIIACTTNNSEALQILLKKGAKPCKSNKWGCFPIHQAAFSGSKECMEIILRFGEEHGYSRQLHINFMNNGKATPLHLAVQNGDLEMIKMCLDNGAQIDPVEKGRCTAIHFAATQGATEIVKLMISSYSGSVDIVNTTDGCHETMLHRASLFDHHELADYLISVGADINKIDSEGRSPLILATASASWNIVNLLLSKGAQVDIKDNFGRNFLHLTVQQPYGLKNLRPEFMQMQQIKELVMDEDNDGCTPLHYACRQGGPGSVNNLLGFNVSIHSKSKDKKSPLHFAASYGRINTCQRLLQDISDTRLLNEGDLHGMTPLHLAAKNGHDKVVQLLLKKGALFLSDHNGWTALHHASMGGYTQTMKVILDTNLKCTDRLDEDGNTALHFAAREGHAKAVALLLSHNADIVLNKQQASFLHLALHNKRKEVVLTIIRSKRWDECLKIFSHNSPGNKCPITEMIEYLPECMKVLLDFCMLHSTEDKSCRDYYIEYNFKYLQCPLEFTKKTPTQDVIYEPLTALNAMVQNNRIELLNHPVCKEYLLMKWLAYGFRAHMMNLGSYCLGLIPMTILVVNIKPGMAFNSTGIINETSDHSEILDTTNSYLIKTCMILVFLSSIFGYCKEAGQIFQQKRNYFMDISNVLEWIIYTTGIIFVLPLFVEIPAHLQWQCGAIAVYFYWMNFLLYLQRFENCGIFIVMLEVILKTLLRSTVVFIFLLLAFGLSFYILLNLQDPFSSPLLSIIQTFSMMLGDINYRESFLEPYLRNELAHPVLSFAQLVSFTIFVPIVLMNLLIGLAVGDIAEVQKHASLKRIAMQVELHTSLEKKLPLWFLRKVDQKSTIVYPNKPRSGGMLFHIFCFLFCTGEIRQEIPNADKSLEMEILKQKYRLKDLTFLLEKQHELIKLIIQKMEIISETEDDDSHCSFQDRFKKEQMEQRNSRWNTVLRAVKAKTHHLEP

As for `CCCCCc1cc(O)c(C/C=C(\C)CCC=C(C)C)c(O)c1` [CBG, Cannabigerol], on TRPA1, the “mean maximal Ca^2+ signal RFU achieved 0-180 s (SD), TRPA1” value is reported as 10.22 (1.29) RFU. Besides, the “mean maximal Ca^2+ signal RFU achieved 0-180 s (SD), TRPV1” value on TRPV2 is given as 2.19 (0.62) RFU.
The matching figures for `C=C(C)[C@@H]1CCC(C)=C[C@H]1c1c(O)cc(CCC)cc1O` [CBDV, Cannabidivarin]: 16.17 (2.68) RFU and 13.07 (0.03) RFU.
For `CCCCCc1cc(O)c2c(c1)OC(C)(C)c1ccc(C)cc1-2` [CBN, Cannabinol], in that order: 10.97 (0.4) RFU and 4.03 (0.64) RFU.
`C=C(C)[C@@H]1CCC(C)=C[C@H]1c1c(O)cc(CCCCC)cc1O` [CBD, Cannabidiol]: the “mean maximal Ca^2+ signal RFU achieved 0-180 s (SD), TRPA1” value on TRPA1 was 1.28 (0.03) RFU. Besides, the “mean maximal Ca^2+ signal RFU achieved 0-180 s (SD), TRPV1” value on TRPV2 is listed as 12.53 (0.28) RFU.

(Values after US20220387375A1, “TRPV1 ACTIVATION-MODULATING COMPLEX MIXTURES OF CANNABINOIDS AND/OR TERPENES” (GBS Global Biopharma, Inc., priority 2018, published 2022).)
